{"source": "ChEMBL document CHEMBL5223130", "about": "“Targeting SARS-CoV-2 Main Protease for Treatment of COVID-19: Covalent Inhibitors Structure-Activity Relationship Insights and Evolution Perspectives” (J Med Chem, 2022)", "key": {"[1]": {"molecular_target": "T1, Replicase polyprotein 1ab (Severe acute respiratory syndrome coronavirus 2, UniProt P0DTD1)", "assay": "Binding affinity to C-terminal His-tagged SARS-CoV-2 BetaCoV/Wuhan/WIV04/2019 Main protease expressed in Escherichia coli assessed as inhibition constant"}, "SARS-CoV-2 [2]": {"tested_on": "SARS-CoV-2", "type": "functional, organism-based, Vero E6", "settings": "Severe acute respiratory syndrome coronavirus 2, USA-WA1/2020, Vero C1008, 72 h"}, "[3]": {"assay": "Selectivity index, ratio of EC50 for antiviral activity against SARS-CoV-2 to […]", "type": "toxicity"}, "[4]": {"molecular_target": "T1, Replicase polyprotein 1ab", "assay": "Binding affinity to SARS-CoV-2 Main protease assessed as inhibition constant"}, "SARS-CoV-2 [5]": {"tested_on": "SARS-CoV-2", "assay": "Antiviral activity against SARS-CoV-2 USA-WA1/2020 infected in African green monkey Vero 76 cells assessed as reduction in virus induced cytopathic effect measured after 3 days by secondary viral yield reduction assay", "type": "functional, organism-based", "settings": "Severe acute respiratory syndrome coronavirus 2, USA-WA1/2020, Vero 76, 72 h"}, "SARS-CoV-2 [6]": {"tested_on": "SARS-CoV-2", "type": "functional, organism-based, Vero E6", "settings": "Severe acute respiratory syndrome coronavirus 2, 2019-nCoV/USA_WA1/2020, Vero C1008, 72 h"}, "[7]": {"molecular_target": "T1, Replicase polyprotein 1ab", "assay": "Inhibition of SARS-CoV-2 Main protease"}, "SARS-CoV-2 [8]": {"tested_on": "SARS-CoV-2", "type": "functional, organism-based, Vero E6", "settings": "Severe acute respiratory syndrome coronavirus 2, nCoV-2019BetaCoV/Wuhan/WIV04/2019, Vero C1008"}, "[9]": {"molecular_target": "T1, Replicase polyprotein 1ab", "assay": "Inhibition of recombinant SARS-CoV-2 Main protease expressed in Escherichia coli BL21 (DE3) cells using Mca-AVLQSGFR-K(Dnp)K as substrate preincubated for 15 mins followed by substrate addition by FRET assay"}, "[10]": {"molecular_target": "T1, Replicase polyprotein 1ab", "assay": "Inhibition of SARS-CoV-2 Main protease by FRET assay"}, "SARS-CoV-2 [11]": {"tested_on": "SARS-CoV-2", "type": "functional, organism-based", "settings": "Severe acute respiratory syndrome coronavirus 2, Caco-2, 72 h"}, "SARS-CoV-2 [12]": {"tested_on": "SARS-CoV-2", "type": "functional, organism-based", "settings": "Severe acute respiratory syndrome coronavirus 2, A549, 96 h"}, "Procathepsin L": {"molecular_target": "Procathepsin L (Homo sapiens, UniProt P07711)", "sequence (P07711 whole entry)": "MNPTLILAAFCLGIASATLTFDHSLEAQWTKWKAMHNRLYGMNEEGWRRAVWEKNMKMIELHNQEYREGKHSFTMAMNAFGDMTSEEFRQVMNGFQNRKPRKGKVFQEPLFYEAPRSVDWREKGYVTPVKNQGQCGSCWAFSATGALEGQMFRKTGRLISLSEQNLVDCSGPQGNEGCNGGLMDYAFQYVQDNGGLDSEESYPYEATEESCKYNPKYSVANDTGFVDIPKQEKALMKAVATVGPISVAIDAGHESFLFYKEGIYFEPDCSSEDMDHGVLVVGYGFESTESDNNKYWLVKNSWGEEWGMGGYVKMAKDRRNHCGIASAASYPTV", "assay": "Inhibition of human Cathepsin L using Z-Phe-Arg-AMC as fluorogenic substrate incubated for 30 mins followed by substrate addition by fluorescence based analysis"}, "SARS-CoV-2 [13]": {"tested_on": "SARS-CoV-2", "type": "functional, organism-based", "settings": "Severe acute respiratory syndrome coronavirus 2, Caco-2"}, "[14]": {"molecular_target": "T1, Replicase polyprotein 1ab", "assay": "Inhibition of SARS-CoV-2 Main protease using Dabcyl-KTSAVLQSGFRKME-Edans as substrate preincubated for 30 mins followed by substrate addition and measured after 4 hrs by fluorescence based assay"}, "SARS-CoV-2 [15]": {"tested_on": "SARS-CoV-2", "type": "functional, organism-based, Vero E6", "settings": "Severe acute respiratory syndrome coronavirus 2, WK-521, Vero C1008, 72 h"}, "SARS-CoV-2 [16]": {"tested_on": "SARS-CoV-2", "assay": "Antiviral activity against SARS-CoV-2 2019-nCoV/USA_WA1/2020 infected in human Huh-7 cells expressing ACE2 measured 24 hrs post infection", "type": "functional, organism-based", "settings": "Severe acute respiratory syndrome coronavirus 2, 2019-nCoV/USA_WA1/2020, Huh-7, 24 h"}, "[17]": {"molecular_target": "T1, Replicase polyprotein 1ab", "assay": "Inhibition of C-terminal His-tagged SARS-CoV-2 BetaCoV/Wuhan/WIV04/2019 Main protease expressed in Escherichia coli using Dabcyl-KTSAVLQ/SGFRKME(Edans) as substrate by FRET assay"}, "SARS-CoV-2 [18]": {"tested_on": "SARS-CoV-2", "assay": "microbe, parasite or virus in culture", "settings": "Severe acute respiratory syndrome coronavirus 2"}}, "note": "Square brackets hold non-standard residues; d marks the D form. Peptide text beside a SMILES is read from it. Nle = CCCC[C@H](N)C(=O)O"}
{"smiles": "CC(C)C[C@H](NC(=O)OCc1ccccc1)C(=O)N[C@@H](C[C@@H]1CCNC1=O)C(=O)C(=O)NC1CC1", "values": [{"measurement": "Ki", "setting": "[1]", "value": 36, "unit": "nM"}, {"measurement": "EC50", "setting": "SARS-CoV-2 [2]", "value": 4610, "unit": "nM"}, {"measurement": "Ratio", "setting": "[3]", "value": 102.44}]}
{"smiles": "C=CCn1ccc2c(C(=O)Oc3cncc(Cl)c3)cccc21", "values": [{"measurement": "Ratio", "setting": "[3]", "value": 205.47}]}
{"smiles": "O=C(Oc1cncc(Cl)c1)c1cccc2c1CCN2", "values": [{"measurement": "Ki", "setting": "[4]", "value": 2150, "unit": "nM"}, {"measurement": "Ratio", "setting": "[3]", "value": 46.87}]}
{"smiles": "CCC[C@H](NC(=O)[C@H](CC(C)C)NC(=O)OCc1ccccc1)C(=O)C(=O)NCc1ccccn1", "values": [{"measurement": "EC50", "setting": "SARS-CoV-2 [5]", "value": 780, "unit": "nM"}]}
{"smiles": "CCOC(=O)/C=C/[C@H](C[C@@H]1CCNC1=O)NC(=O)[C@H](CC(C)C)NC(=O)[C@@H](NC(=O)OCc1ccccc1)[C@@H](C)OC(C)(C)C", "values": [{"measurement": "EC50", "setting": "SARS-CoV-2 [6]", "value": 2880, "unit": "nM"}]}
{"smiles": "O=C(CCl)N1N=C(c2cc(Cl)ccc2F)C(c2ccccc2)C1c1ccc2nccnc2c1", "note": "(centres undefined)", "values": [{"measurement": "IC50", "setting": "[7]", "value": 14, "unit": "nM"}]}
{"smiles": "C=CC(=O)N(c1ccc(C(C)(C)C)cc1)[C@H](C(=O)NCCc1cccc(F)c1)c1cccnc1", "values": [{"measurement": "Ki", "setting": "[4]", "value": 38400, "unit": "nM"}]}
{"smiles": "O=c1c2ccccc2[se]n1Cc1ccc(Cl)cc1", "values": [{"measurement": "EC50", "setting": "SARS-CoV-2 [8]", "value": 1780, "unit": "nM"}, {"measurement": "IC50", "setting": "[9]", "value": 824, "unit": "nM"}]}
{"smiles": "CC(C)CCn1sc2ccc(Br)cc2c1=O", "values": [{"measurement": "IC50", "setting": "[10]", "value": 320, "unit": "nM"}]}
{"smiles": "CC(C)C[C@H](NC(=O)[C@@H](NC(=O)OCc1ccccc1)[C@H](C)OC(C)(C)C)C(=O)N[C@H](C=O)C[C@@H]1CCNC1=O", "values": [{"measurement": "EC50", "setting": "SARS-CoV-2 [11]", "value": 2500, "unit": "nM"}, {"measurement": "EC50", "setting": "SARS-CoV-2 [12]", "value": 310, "unit": "nM"}, {"measurement": "IC50", "setting": "Procathepsin L", "value": 1.2, "unit": "nM"}]}
{"smiles": "O=C[C@H](C[C@@H]1CCNC1=O)NC(=O)[C@@H]1[C@H]2CCC[C@H]2CN1C(=O)OCc1ccccc1", "values": [{"measurement": "Ratio", "setting": "[3]", "value": 50.2}]}
{"smiles": "COc1cncc(Cn2[se]c3ccccc3c2=O)c1", "values": [{"measurement": "EC50", "setting": "SARS-CoV-2 [8]", "value": 3170, "unit": "nM"}, {"measurement": "IC50", "setting": "[9]", "value": 467, "unit": "nM"}]}
{"smiles": "COc1cccc(Cn2[se]c3ccccc3c2=O)c1", "values": [{"measurement": "EC50", "setting": "SARS-CoV-2 [8]", "value": 4500, "unit": "nM"}, {"measurement": "IC50", "setting": "[9]", "value": 363, "unit": "nM"}]}
{"smiles": "C[C@H](NC[C@@H](c1cccnc1)N(C(=O)C(Br)(Br)Br)c1ccc(-c2ccccc2)cc1)c1ccccc1", "values": [{"measurement": "EC50", "setting": "SARS-CoV-2 [13]", "value": 2150, "unit": "nM"}, {"measurement": "IC50", "setting": "[7]", "value": 80, "unit": "nM"}, {"measurement": "Ratio", "setting": "[3]", "value": 26.87}]}
{"smiles": "C[C@H](NC[C@@H](c1cccnc1)N(C(=O)C(Cl)Cl)c1ccc(-c2ccccc2)cc1)c1ccccc1", "values": [{"measurement": "EC50", "setting": "SARS-CoV-2 [13]", "value": 2050, "unit": "nM"}, {"measurement": "IC50", "setting": "[7]", "value": 430, "unit": "nM"}, {"measurement": "Ratio", "setting": "[3]", "value": 4.76}]}
{"smiles": "COc1ccc(-c2sc3n(c(NC(C)(C)C)c4[n+]3[C@H]3CC(=O)C=C[C@H]3OC4)c2-c2ccc(OC)cc2)cc1", "values": [{"measurement": "IC50", "setting": "[14]", "value": 20700, "unit": "nM"}]}
{"smiles": "CC(C)C[C@H](NC(=O)OCc1ccccc1)C(=O)N[C@@H](CC(C)C)C(=O)N[C@@H](C[C@@H]1CCNC1=O)C(=O)C(=O)NC1CC1", "values": [{"measurement": "Ki", "setting": "[1]", "value": 13, "unit": "nM"}, {"measurement": "EC50", "setting": "SARS-CoV-2 [2]", "value": 11100, "unit": "nM"}]}
{"smiles": "O=C(N[C@@H](Cc1ccccc1)C(=O)N[C@@H](C[C@@H]1CCNC1=O)C(O)S(=O)(=O)[O-])OCc1ccccc1.[Na+]", "note": "(some centres undefined)", "values": [{"measurement": "Ratio", "setting": "[3]", "value": 45.78}]}
{"smiles": "Cc1cccc(C(=O)Oc2c(C)cccc2C(=O)Oc2cncc(Cl)c2)c1O", "values": [{"measurement": "EC50", "setting": "SARS-CoV-2 [15]", "value": 24000, "unit": "nM"}]}
{"smiles": "O=C(c1cccc(Cn2[se]c3ccccc3c2=O)c1)N1CCOCC1", "values": [{"measurement": "EC50", "setting": "SARS-CoV-2 [8]", "value": 3740, "unit": "nM"}, {"measurement": "IC50", "setting": "[9]", "value": 345, "unit": "nM"}]}
{"smiles": "CC(C)C[C@H](NC(=O)OCc1cccc(C(F)(F)F)c1)C(=O)N[C@@H](C[C@@H]1CCNC1=O)C(O)S(=O)(=O)O", "note": "(some centres undefined)", "values": [{"measurement": "EC50", "setting": "SARS-CoV-2 [16]", "value": 6, "unit": "nM"}]}
{"smiles": "CSCC[C@@H](C=O)NC(=O)[C@H](CC(C)C)NC(=O)[C@H](CC(C)C)NC(C)=O", "note": "(Ac-Leu-Leu-Met-aldehyde)", "values": [{"measurement": "EC50", "setting": "SARS-CoV-2 [5]", "value": 3700, "unit": "nM"}]}
{"smiles": "CCCC[C@@H](C=O)NC(=O)[C@H](CC(C)C)NC(=O)[C@H](CC(C)C)NC(C)=O", "note": "(Ac-Leu-Leu-[Nle]-aldehyde)", "values": [{"measurement": "IC50", "setting": "[17]", "value": 970, "unit": "nM"}]}
{"smiles": "CC(C)(C)NC(=O)N[C@H](C(=O)N1C[C@H]2[C@@H]([C@H]1C(=O)NC(CC1CCC1)C(=O)C(N)=O)C2(C)C)C(C)(C)C", "note": "(some centres undefined) [BOCEPREVIR]", "values": [{"measurement": "EC50", "setting": "SARS-CoV-2 [18]", "value": 1900, "unit": "nM"}]}
{"smiles": "O=C1C=CC(=O)c2c(O)ccc(O)c21", "note": "[NAPHTHAZALIN]", "values": [{"measurement": "IC50", "setting": "[7]", "value": 490, "unit": "nM"}]}
